Test results from the pKa sets of Baltruschat and Czodrowski (2020).

Conditions: acidic group

Compound | pKa
OC(CS)CS | 9.17
Oc1ccc(-c2ccccc2)cc1 | 9.47
[NH3+][C@@H](Cc1c[nH]c2ccccc12)C(=O)O | 2.2
N#Cc1cccc(C(=O)O)c1 | 3.6
CC(C)[NH2+]CC(=O)O | 2.35
CC(C)CCP(=O)(O)CCC(C)C | 3.26
Cc1cccc(C(=O)O)c1C | 3.73
O=S(=O)([N-]c1ncc(Cl)cn1)c1ccc(O)cc1 | 8.84
CC(=O)c1cccc(NS(=O)(=O)C(F)(F)F)c1 | 3.75
CC(C(=O)c1ccccc1)[n+]1ccccc1 (stereo not given) | 11.5
O=C(O)c1csc([N+](=O)[O-])c1 | 3.24
O=[N+]([O-])c1cc(Cl)ccc1O | 3.5
CCOC(=O)Cc1nc2ccccc2[nH]1 | 13.1
Oc1nc2ccccc2c[nH+]1 | 1.3
CNC(=O)CS(=O)(=O)NC(N)=O | 4.89
CC(N)c1nnn[n-]1 (stereo not given) | 8.77
O=C(Oc1cccc(Cl)c1)C1c2ccccc2-c2ccccc21 | 10.2
O=C(O)c1ncccn1 | 2.85
CCn1nnnc1CC(=O)O | 2.85
O=C(O)c1cc(=O)cco1 | 1.5
N#CC(C#N)=NNc1c(Cl)cccc1Cl | 4.7
O/N=C(/Cl)c1ccccc1 | 9.8

Now from value to compound:

pKa | Compound
2.96 | CCN(CC)S(=O)(=O)c1ccccc1C(=O)O
-0.71 | Cn1c(=O)ccc2ccccc21
3.1 | O=C(O)[C@@H]1O[C@H](Oc2ccc(-c3ccccc3)cc2)[C@@H](O)[C@H](O)[C@H]1O
11.8 | COc1ccc(NC(=S)c2ccc(OC)cc2)cc1
8.4 | Oc1cccc2ccncc12
6.13 | O=C1c2ccccc2C(=O)N1O
1.98 | CC[NH+](CC)CC(=O)O
11 | C=C(/C=C(/C)O)C(C)(C)C
4.08 | O=C(O)/C=C\c1ccc(O)cc1
6.95 | O=c1[nH]ccc2nnnn12
3.37 | Cc1ccccc1OC(C)C(=O)O (stereo not given)
4.38 | O=C(O)CCS
13.3 | O=C1CC(Sc2ccccc2)N1 (stereo not given)
9.8 | COc1cc2c(cc1O)[C@H]1Cc3cc(OC)c(OC)cc3[C@H](C2)N1C

Same assay, conditions: basic group

Compound | pKa
COc1cc2c(OC)ncnc2c(OC)c1OC | 3.34
c1c[nH+]c(Cc2nc(Cc3c[nH]c[nH+]3)c[nH]2)[nH]1 | 3.94
CNC(=O)NC | 1.02
CCCNC(=O)[C@H](Cc1c[nH]cn1)NC(=O)c1cccc(CNCC[NH3+])n1 | 6.5
NC(=O)Cc1ccncc1 | 5.08
CCCn1ccnc1C=O | 5.15
Nc1nnnn1-c1cccc([N+](=O)[O-])c1 | 0.47
N#Cc1ccc(N)c2ccccc12 | 1.2
CCOC(=O)Cc1nc2ccccc2[nH]1 | 5.7
CCOC(=O)[C@H](C)N | 7.8
CCNCC[Se-] | 10.9
[NH3+]c1ccc(-c2cnc(-c3ccccc3)o2)cc1 | 0.5
CCNCC(=O)N(CC)CC | 8.78
CN1CCCC[C@H]1c1cccnc1 | 5.42
N#Cc1ccncc1 | 1.91
N#CCN | 5.37
Cc1ccc2[nH]cnc2c1 | 5.81
CN(C)CCC[NH+](C)C | 7.73
O=C(O)c1ncccn1 | -1.13
CC1=C(CC(C)NCC(O)c2ccc(Cl)cc2)CCC1(C)C (stereo not given) | 8.55
C1CCC2CNCCC2C1 (stereo not given) | 10.9
CN1CCN(C(c2ccccc2)c2ccc(Cl)cc2)CC1 (stereo not given) | 7.81
N#CC(C#N)=NNc1c(Cl)cccc1Cl | -0.67
[NH3+][C@@H](Cc1c[nH]cn1)C(=O)N[C@@H](Cc1c[nH]c[nH+]1)C(=O)[O-] | 5.6
NCCc1ccc([N+](=O)[O-])cc1 | 9.42
O=Cc1ccc2ccccc2n1 | 3.1

Continued, values first:

pKa | Compound
7.1 | Nc1c2ccccc2nc2c1ccc1c([N+](=O)[O-])cccc12
6.99 | O=C([O-])c1cccc2cccnc12
10.6 | CC(C)N
6.29 | Cn1cnc2cc(N)ccc21
5.66 | Oc1cccc2ccncc12
3.71 | COc1ccc(-c2ncc(-c3ccc(N)cc3)o2)cc1
9.62 | CC(C)C[C@H](N)C(=O)[O-]
7.4 | C[NH+](C)CCCCCNc1c2ccccc2nc2cccc([N+](=O)[O-])c12
